ChEMBL document CHEMBL1140267, “Synthesis and pharmacological evaluation of substituted 5-[4-[2-(6,7-dimethyl-1,2,3,4-tetrahydro-2-oxo-4-quinoxalinyl)ethoxy]phenyl]methylene]thiazolidine-2,4-dione derivatives as potent euglycemic and hypolipidemic agents” (Bioorg Med Chem Lett, 2005)

Key:
Assay type in all cases: ADME, organism-based
Conditions in all cases: in vivo
[1] = Percent decrease in triglyceride level of wistar rat was determined at 30 mg/kg dosage of the compound; design: dose 30 mg/kg
[2] = Percent decrease in plasma glucose level of wistar rat was determined at 100 mg/kg dosage of the compound; design: dose 100 mg/kg
[3] = Percent decrease in plasma glucose level of wistar rat was determined at 30 mg/kg dosage of the compound; design: dose 30 mg/kg
[4] = Percent decrease in triglyceride level of wistar rat was determined at 10 mg/kg dosage of the compound; design: dose 10 mg/kg
[5] = Percent decrease in plasma glucose level of wistar rat was determined at 10 mg/kg dosage of the compound; design: dose 10 mg/kg
[6] = Percent decrease in triglyceride level of wistar rat was determined at 100 mg/kg dosage of the compound; design: dose 100 mg/kg
[7] = Percent decrease in triglyceride level of wistar rat was determined at 3 mg/kg dosage of the compound; design: dose 3 mg/kg
[8] = Percent decrease in plasma glucose level of wistar rat was determined at 3 mg/kg dosage of the compound; design: dose 3 mg/kg

SMILES | Decrease [1] [%] | Decrease [2] [%] | Decrease [3] [%] | Decrease [4] [%] | Decrease [5] [%] | Decrease [6] [%] | Decrease [7] [%] | Decrease [8] [%]
Cc1cc2c(cc1C)N(CCCOc1ccc(/C=C3/SC(=O)NC3=O)cc1)C(c1ccccc1)C(=O)N2 (stereo unspecified) | 14.73 | 38.96 | 26.42 | 10.66 | 19.25 | 22.89 | 10.46 | 18.68
Cc1cc2c(cc1C)N(CCOc1ccc(/C=C3/SC(=O)NC3=O)cc1)CC(=O)N2 | 49.12 | 81.25 | 69.47 | 44.2 | 52.63 | 54.95 | 49.63 | 50.12
CN(CCOc1ccc(CC2SC(=O)NC2=O)cc1)c1ccccn1 (stereo unspecified) [ROSIGLITAZONE] | 41 | 75.5 | 65 | 35.25 | 47.25 | 46 | 47 | 41.6
Cc1cc2c(cc1C)N(CCOc1ccc(/C=C3/SC(=O)NC3=O)cc1)C(c1ccccc1)C(=O)N2 (stereo unspecified) | 22.46 | 53.96 | 40.26 | 20.36 | 21.69 | 29.73 | 16.87 | 25.24

More lines, now with the values ahead:

Decrease [1] [%] | Decrease [2] [%] | Decrease [3] [%] | Decrease [4] [%] | Decrease [5] [%] | Decrease [6] [%] | Decrease [7] [%] | Decrease [8] [%] | SMILES
47.35 | 72.33 | 64.76 | 38.13 | 49.11 | 50.1 | 30.36 | 47.65 | Cc1cc2c(cc1C)N(CCCOc1ccc(/C=C3/SC(=O)NC3=O)cc1)CC(=O)N2
28.82 | 64.26 | 49.62 | 29.69 | 39.21 | 37.46 | 21.73 | 35.73 | Cc1cc2c(cc1C)N(CCCOc1ccc(/C=C3/SC(=O)NC3=O)cc1)C(C)C(=O)N2 (stereo unspecified)
40 | 69.72 | 58.48 | 32.62 | 42.17 | 43.42 | 23.46 | 43.16 | Cc1cc2c(cc1C)N(CCOc1ccc(/C=C3/SC(=O)NC3=O)cc1)C(C)C(=O)N2 (stereo unspecified)
